Measurements: US8846653B2, “Delta-tocotrienol treatment and prevention of pancreatic cancer” (University of South Florida, priority 2006, dated 2014)

What was measured:
Assay type in all cases: cell-based, human
[1] = tested on: SW1990 pancreatic cancer cells; experiment: MTS assay of SW1990 cultures, single 50 μM dose; conditions: SW1990, 50 μM
Method: SW1990 pancreatic cancer cells […] were cultured in complete DMEM media containing 10% fetal bovine serum (FBS) and 1% penicillin-streptomycin, and 1% L-glutamine. BxPc-3 pancreatic cancer cells were cultured in complete RPMI media containing 10% fetal bovine serum (FBS), and 1% penicillin-streptomycin, 1% HEPES buffer, 1% sodium pyruvate and 1% L-glutamine. HPDE6-C7 cells were cultured in serum-free keratinocyte SFM media. All cells were maintained at 37° C. in a humidified incubator with 5% CO2. The cells were treated with a single 50 μM dose of vehicle (ethanol extracted olive oil), T3 alpha (alpha tocotrienol), T3 beta (beta tocotrienol), T3 gamma (gamma tocotrienol), T3 delta (delta tocotrienol), T alpha (alpha tocopherol), T beta (beta tocopherol), TS (tocopherol succinate), GG (geranylgeraniol), SA (succinic acid). A control culture (i.e., only vehicle with no treatment) was grown alongside the treatments for comparison. Cell viability was measured using MTS assay at preselect times of 24, 48, or 72 hours after treatment.

BXPC3 cells = experiment: MTT assay of BXPC3 cultures, single 50 μM dose; design: MTT assay result, run 1 / MTT assay result, run 2 / MTT assay result, run 3 / MTT assay result, run 4 / MTT assay result, run 5 / MTT assay result, run 6 / MTT assay result, run 7 / MTT assay result, av (average) / MTT assay result, av-blank / MTT assay result, av: unit not given here; conditions: BXPC3, 50 μM; for MTT assay result, av-blank: average minus blank
Method: (§1) BXPC3 cells were cultured in complete […] media containing 10% fetal bovine serum (FBS) and 1% penicillin-streptomycin, and 1% L-glutamine. BxPc-3 pancreatic cancer cells were cultured in complete RPMI media containing 10% fetal bovine serum (FBS), and 1% penicillin-streptomycin, 1% HEPES buffer, 1% sodium pyruvate and 1% L-glutamine HPDE6-C7 cells were cultured in serum-free keratinocyte SFM media. All cells were maintained at 37° C. in a humidified incubator with 5% CO2. The cells were treated with a single 50 μM dose of vehicle (vehicle only, may be a solvent), T3 alpha (alpha tocotrienol), T3 beta (beta tocotrienol), T3 gamma (gamma tocotrienol), T3 delta (delta tocotrienol), T alpha (alpha tocopherol), T beta (beta tocopherol), TS (tocopherol succinate), GG (geranylgeraniol), SA (succinic acid). A control (no treatment) culture was grown alongside the treatments for comparison. Cell viability was measured using MTT assay at preselect times of 48 or 120 hours after treatment.

MiaPaCa-2 cells = experiment: MTS assay of MiaPaCa2 cultures, single 50 μM dose; conditions: MiaPaCa2, 50 μM
Method: as §1, with “MiaPaCa-2” for “BXPC3”, “Cell viability was measured using MTT assay at preselect times of 48 or 120 hours after treatment.” left out

Compound: CC(C)=CCC/C(C)=C/CC/C(C)=C/CC/C(C)=C/CO [GG, geranylgeraniol]
- rel amnt (relative value set to the control) ([1]; 24 hours): 92
- MTS assay result, run 1 ([1]; 24 hours): 0.158
- MTS assay result, run 2 ([1]; 24 hours): 0.133
- MTS assay result, run 3 ([1]; 24 hours): 0.133
- MTS assay result, run 4 ([1]; 24 hours): 0.137
- MTS assay result, run 5 ([1]; 24 hours): 0.131
- MTS assay result, run 6 ([1]; 24 hours): 0.14
- MTS assay result, run 7 ([1]; 24 hours): 0.132
- MTS assay result, run 8 ([1]; 24 hours): 0.121
- MTS assay result, run 9 ([1]; 24 hours): 0.136
- rel amnt (relative value set to the control) ([1]; 48 hours): 83
- MTS assay result, run 1 ([1]; 48 hours): 0.078
- MTS assay result, run 2 ([1]; 48 hours): 0.129
- MTS assay result, run 3 ([1]; 48 hours): 0.13
- MTS assay result, run 4 ([1]; 48 hours): 0.128
- MTS assay result, run 5 ([1]; 48 hours): 0.133
- MTS assay result, run 6 ([1]; 48 hours): 0.118
- MTS assay result, run 7 ([1]; 48 hours): 0.14
- MTS assay result, run 8 ([1]; 48 hours): 0.144
- MTS assay result, run 9 ([1]; 48 hours): 0.125
- rel amnt (relative value set to the control) ([1]; 72 hours): 158
- MTS assay result, run 1 ([1]; 72 hours): 0.784
- MTS assay result, run 2 ([1]; 72 hours): 0.713
- MTS assay result, run 3 ([1]; 72 hours): 0.76
- MTS assay result, run 4 ([1]; 72 hours): 0.734
- MTS assay result, run 5 ([1]; 72 hours): 0.682
- MTS assay result, run 6 ([1]; 72 hours): 0.665
- MTS assay result, run 7 ([1]; 72 hours): 0.65
- MTS assay result, run 8 ([1]; 72 hours): 0.627
- MTS assay result, run 9 ([1]; 72 hours): 0.702
- rel amt (relative value set to the control) (BXPC3 cells; 48 hours): 108
- MTT assay result, av-blank (BXPC3 cells; 48 hours): 0.246
- MTT assay result, av (average) (BXPC3 cells; 48 hours, average of 7 runs): 0.295
- MTT assay result, run 1 (BXPC3 cells; 48 hours): 0.308
- MTT assay result, run 2 (BXPC3 cells; 48 hours): 0.272
- MTT assay result, run 3 (BXPC3 cells; 48 hours): 0.299
- MTT assay result, run 4 (BXPC3 cells; 48 hours): 0.291
- MTT assay result, run 5 (BXPC3 cells; 48 hours): 0.299
- MTT assay result, run 6 (BXPC3 cells; 48 hours): 0.3
- MTT assay result, run 7 (BXPC3 cells; 48 hours): 0.294
- rel amt (relative value set to the control) (BXPC3 cells; 120 hours (5 days)): 106
- MTT assay result, av-blank (BXPC3 cells; 120 hours (5 days)): 0.610
- MTT assay result, av (BXPC3 cells; 120 hours (5 days), average of 7 runs): 0.665
- MTT assay result, run 1 (BXPC3 cells; 120 hours (5 days)): 0.621
- MTT assay result, run 2 (BXPC3 cells; 120 hours (5 days)): 0.655
- MTT assay result, run 3 (BXPC3 cells; 120 hours (5 days)): 0.672
- MTT assay result, run 4 (BXPC3 cells; 120 hours (5 days)): 0.663
- MTT assay result, run 5 (BXPC3 cells; 120 hours (5 days)): 0.657
- MTT assay result, run 6 (BXPC3 cells; 120 hours (5 days)): 0.724
- MTT assay result, run 7 (BXPC3 cells; 120 hours (5 days)): 0.66
- rel amt (relative value set to the control) (MiaPaCa-2 cells; 24 hours): 82
- MTS assay result, run 1 (MiaPaCa-2 cells; 24 hours): 0.186
- MTS assay result, run 2 (MiaPaCa-2 cells; 24 hours): 0.166
- MTS assay result, run 3 (MiaPaCa-2 cells; 24 hours): 0.175
- MTS assay result, run 4 (MiaPaCa-2 cells; 24 hours): 0.18
- MTS assay result, run 5 (MiaPaCa-2 cells; 24 hours): 0.196
- MTS assay result, run 6 (MiaPaCa-2 cells; 24 hours): 0.199
- MTS assay result, run 7 (MiaPaCa-2 cells; 24 hours): 0.184
- MTS assay result, run 8 (MiaPaCa-2 cells; 24 hours): 0.178
- MTS assay result, run 9 (MiaPaCa-2 cells; 24 hours): 0.183
- rel amt (relative value set to the control) (MiaPaCa-2 cells; 48 hours): 53
- MTS assay result, run 1 (MiaPaCa-2 cells; 48 hours): 0.154
- MTS assay result, run 2 (MiaPaCa-2 cells; 48 hours): 0.194
- MTS assay result, run 3 (MiaPaCa-2 cells; 48 hours): 0.181
- MTS assay result, run 4 (MiaPaCa-2 cells; 48 hours): 0.198
- MTS assay result, run 5 (MiaPaCa-2 cells; 48 hours): 0.236
- MTS assay result, run 6 (MiaPaCa-2 cells; 48 hours): 0.198
- MTS assay result, run 7 (MiaPaCa-2 cells; 48 hours): 0.193
- MTS assay result, run 8 (MiaPaCa-2 cells; 48 hours): 0.192
- MTS assay result, run 9 (MiaPaCa-2 cells; 48 hours): 0.193
- rel amt (relative value set to the control) (MiaPaCa-2 cells; 72 hours): 158
- MTS assay result, run 1 (MiaPaCa-2 cells; 72 hours): 0.784
- MTS assay result, run 2 (MiaPaCa-2 cells; 72 hours): 0.713
- MTS assay result, run 3 (MiaPaCa-2 cells; 72 hours): 0.757
- MTS assay result, run 4 (MiaPaCa-2 cells; 72 hours): 0.734
- MTS assay result, run 5 (MiaPaCa-2 cells; 72 hours): 0.682
- MTS assay result, run 6 (MiaPaCa-2 cells; 72 hours): 0.665
- MTS assay result, run 7 (MiaPaCa-2 cells; 72 hours): 0.65
- MTS assay result, run 8 (MiaPaCa-2 cells; 72 hours): 0.627
- MTS assay result, run 9 (MiaPaCa-2 cells; 72 hours): 0.702
